Test [1] concerns BGC-823. In words: Growth inhibition of human BGC823 cells at 20 uM after 72 hrs by MTT assay. The test is classed as functional, cell-based. Background: Tetrazolium dyes change colour on reduction, which living cells bring about.
For test [2], the species on record is Mus musculus. The test is described as follows: Growth inhibition of MFC cells at 20 uM after 72 hrs by MTT assay. The format is functional.
Test [3] concerns BGC-823. In words: Potency index, ratio of compound effect to curcumin effect for growth inhibition of human BGC823 cells. The format is functional.
The test system of test [4] is SGC-7901. In words: Growth inhibition of human SGC7901 cells at 20 uM after 72 hrs by MTT assay. The test is classed as functional, cell-based.
Test [5] deals with SGC-7901. In words: Potency index, ratio of compound effect to curcumin effect for growth inhibition of human SGC7901 cells. The test is classed as functional.
Test [6] relates to BGC-823. In words: Inhibition of colony formation in human BGC823 cells at 5 uM treated for 12 hrs followed by incubation in drug free medium for 14 days by crystal violet staining based assay. The test is classed as functional, cell-based.
Test [7] relates to SGC-7901. In words: Inhibition of colony formation in human SGC7901 cells at 5 uM treated for 12 hrs followed by incubation in drug free medium for 14 days by crystal violet staining based assay. The test is classed as functional, cell-based.
Test [8] is filed under the species Homo sapiens. The test is described as follows: Inhibition of NFkappaB activation in human BGC823 cells assessed as potentiation of irrinotecan-induced decrease in colony formation at 1 uM preincubated for 12 hrs followed by incubation in drug free medium for 11 days by crystal violet staining based assay. The format is cell-based.
Test [9] relates to BGC-823. The test is described as follows: Growth inhibition of human BGC823 cells after 72 hrs by MTT assay. The test is classed as functional, cell-based. Particulars: BGC-823, 72 h.
The species named for test [10] is Homo sapiens. In words: Inhibition of NFkappaB activation in human BGC823 cells assessed as potentiation of irrinotecan-induced decrease in survival cell count at 1 uM after 48 hrs by cell analyzer method. The format is cell-based.
The subject of test [11] is SGC-7901. The test is described as follows: Induction of apoptosis in human SGC7901 cells assessed as downregulation of bcl2 protein expression at 2.5 to 5 uM after 48 hrs by Western blot method. The test is classed as functional, cell-based. On the technique in general: In western blotting, separated proteins are transferred to a membrane and probed.
The subject of test [12] is SGC-7901. The test is described as follows: Induction of apoptosis in human SGC7901 cells assessed as upegulation of Bax protein expression at 2.5 to 5 uM after 48 hrs by Western blot method. The test is classed as functional, cell-based.
Test [13] is filed under the species Homo sapiens. In words: Inhibition of NFkappaB activation in human BGC823 cells assessed as potentiation of irrinotecan-induced cell growth inhibition at 1 uM after 48 hrs by inverted microscopic method relative to irrinotecan alone. The format is cell-based.
For test [14], the system named is SGC-7901. The test is described as follows: Induction of apoptosis in human SGC7901 cells assessed as upegulation of cleaved PARP protein expression at 2.5 to 5 uM after 48 hrs by Western blot method. The format is functional, cell-based.
The subject of test [15] is BGC-823. In words: Induction of apoptosis in human BGC823 cells assessed as downregulation of bcl2 protein expression at 2.5 to 5 uM after 48 hrs by Western blot method. The test is classed as functional, cell-based.
The species entered for test [16] is Homo sapiens. In words: Inhibition of NFkappaB activation in human SGC7901 cells assessed as reduction in TNFalpha-induced IkBalpha degradation at 1 to 5 uM preincubated for 2 hrs followed by TNFalpha addition measured after 30 mins by Western blot method. The format is cell-based.
Test [17] concerns SGC-7901. In words: Induction of apoptosis in human SGC7901 cells assessed as apoptotic nuclei formation at 2.5 to 5 uM after 24 hrs by Hoechst 33258 staining based fluorescence microscopic method. The test is classed as functional, cell-based.
For test [18], the species on record is Homo sapiens. The test is described as follows: Inhibition of NFkappaB activation in human BGC823 cells assessed as potentiation of irrinotecan-induced cell growth inhibition at 1 uM after 72 hrs by MTT method relative to irrinotecan alone. The test is classed as cell-based.
In test [19] the test system is SGC-7901. In words: Induction of apoptosis in human SGC7901 cells assessed as upegulation of cleaved caspase-3 protein expression at 2.5 to 5 uM after 48 hrs by Western blot method. The format is functional, cell-based.
The species named for test [20] is Homo sapiens. In words: Inhibition of NFkappaB activation in human BGC823 cells assessed as potentiation of irrinotecan-induced cell growth inhibition at 1 uM after 72 hrs by MTT method relative to (3E,5E)-3-(2,3-dimethoxybenzylidene)-5-(4-hydroxy-3-methoxybenzylidene)dihydro-2H-pyran-4(3H)-one alone. The format is cell-based.
Test [21] relates to SGC-7901. The test is described as follows: Inhibition of colony formation in human SGC7901 cells treated for 12 hrs followed by incubation in drug free medium for 14 days by crystal violet staining based assay. The format is functional, cell-based.
Test [22] relates to BGC-823. In words: Induction of apoptosis in human BGC823 cells assessed as upegulation of cleaved caspase-3 protein expression at 2.5 to 5 uM after 48 hrs by Western blot method. The format is functional, cell-based.
For test [23], the species on record is Homo sapiens. In words: Inhibition of NFkappaB activation in human BGC823 cells assessed as potentiation of irrinotecan-induced cell growth inhibition at 1 uM after 48 hrs by inverted microscopic method relative to (3E,5E)-3-(2,3-dimethoxybenzylidene)-5-(4-hydroxy-3-methoxybenzylidene)dihydro-2H-pyran-4(3H)-one alone. The format is cell-based.
For test [24], the system named is BGC-823. The test is described as follows: Inhibition of colony formation in human BGC823 cells treated for 12 hrs followed by incubation in drug free medium for 14 days by crystal violet staining based assay. The format is functional, cell-based.
Test [25] is filed under the species Homo sapiens. The test is described as follows: Inhibition of NFkappaB activation in human BGC823 cells assessed as reduction in TNFalpha-induced IkBalpha degradation at 1 to 5 uM preincubated for 2 hrs followed by TNFalpha addition measured after 30 mins by Western blot method. The format is cell-based.
The subject of test [26] is BGC-823. In words: Induction of apoptosis in human BGC823 cells assessed as upegulation of Bax protein expression at 2.5 to 5 uM after 48 hrs by Western blot method. The test is classed as functional, cell-based.
Test [27] concerns BGC-823. In words: Induction of apoptosis in human BGC823 cells assessed as upegulation of cleaved PARP protein expression at 2.5 to 5 uM after 48 hrs by Western blot method. The format is functional, cell-based.
In test [28] the test system is SGC-7901. In words: Growth inhibition of human SGC7901 cells after 72 hrs by MTT assay. Particulars: SGC-7901, 72 h. The test is classed as functional, cell-based.

Active and inactive are the calls of the source. The rule behind the calls is not given here. Bounds are passed on as bounds.

Usually IC50 stands for the midpoint of a concentration-inhibition curve. High values mean weaker potency, low ones greater potency.

Consider `COc1ccc(/C=C2\COC/C(=C\c3ccc(O)c(OC)c3)C2=O)cc1O`, for which the “growth inhibition (GI)” value in test [1], in test [2] and in test [4] was “Active” throughout. The Ratio is reported as above 10 in [3] and above 2 in test [5].

Consider `Cc1ccc(S(=O)(=O)/C=C/C#N)cc1`, for which the inhibition entry in test [6] and in test [7] was “Active” in each case.

In the case of `COc1cc(/C=C2\COC/C(=C\c3cccc(OC)c3OC)C2=O)ccc1O`, the inhibition result in test [8] and in test [10] was “Active” throughout. Also, the IC50 in [9] was determined as 3.5 µM; in test [28] it was 1.6 µM. For the same molecule, the result in [11], in [12], in test [14], in test [15], in test [17] and in test [19] was Active. The outcome in [22], in test [26] and in [27] was Active. Further, the “growth inhibition (GI)” value in [1], in [2] and in [4] was “Active” each time. Besides, the fold change (FC) in [13] amounted to 2; in [18], 10; in [20], 2.5; in [23], 3. Further, the inhibition result in test [16], in [21], in [24] and in test [25] was “Dose-dependent effect” throughout. Besides, the Ratio in [3] is given as above 10; in test [5] it was above 2.

Turning to `COc1ccc(/C=C2\COC/C(=C\c3ccc(O)c(OC)c3)C2=O)c(C(F)(F)F)c1`, the “growth inhibition (GI)” value in [1] and in [4] was “Active” in each case. Moreover, the Ratio in test [3] is given as above 10; in test [5], above 2.

Consider `COc1ccc(/C=C2\COC/C(=C\c3ccc(O)c(OC)c3)C2=O)c(OC)c1`, for which the “growth inhibition (GI)” value in test [4] was “Active”. In addition, the Ratio in test [5] was above 2.

Regarding `COc1ccc(OC)c(/C=C2\COC/C(=C\c3ccc(O)c(OC)c3)C2=O)c1`, the “growth inhibition (GI)” value in test [1], in test [2] and in [4] was “Active” each time. For the same molecule, the results for the Ratio in test [3] and in test [5] were above 10 and above 2, respectively.

Consider `COc1cc(/C=C/C(=O)CC(=O)/C=C/c2ccc(O)c(OC)c2)ccc1O`, for which the “growth inhibition (GI)” value in test [1], in test [2] and in test [4] was “Active” each time.

Consider `Cc1ccc2nc(NCCN)c3ncc(C)n3c2c1`, for which the “growth inhibition (GI)” value in test [1], in test [2] and in [4] was “Active” in each case.
